Assay results reported in ChEMBL document CHEMBL1201862, “PubChem BioAssay data set” (2004).
Activity calls are given as the source filed them.

Columns and labels:
CAAX prenyl protease 2 = target: T1, CAAX prenyl protease 2 (Saccharomyces cerevisiae S288c, UniProt Q03530); assay type: biochemical
T1 sequence (Q03530 whole entry): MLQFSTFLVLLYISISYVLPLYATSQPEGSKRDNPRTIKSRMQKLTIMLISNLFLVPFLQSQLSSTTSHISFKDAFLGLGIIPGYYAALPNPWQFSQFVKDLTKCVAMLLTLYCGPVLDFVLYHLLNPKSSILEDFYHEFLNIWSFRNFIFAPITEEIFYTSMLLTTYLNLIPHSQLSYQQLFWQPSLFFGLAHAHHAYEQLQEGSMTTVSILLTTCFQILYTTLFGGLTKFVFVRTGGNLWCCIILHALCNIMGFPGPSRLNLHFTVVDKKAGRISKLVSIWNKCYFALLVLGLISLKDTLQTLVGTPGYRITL

CAAX prenyl protease 1 = CAAX prenyl protease 1 (Saccharomyces cerevisiae S288c, UniProt P47154); assay: Ste24 protease inhibitors, dose response, biochemical, S. cerevisiae, plate reader, cherry-pick (AID 488815)
CAAX prenyl protease 1, sequence (P47154 whole entry): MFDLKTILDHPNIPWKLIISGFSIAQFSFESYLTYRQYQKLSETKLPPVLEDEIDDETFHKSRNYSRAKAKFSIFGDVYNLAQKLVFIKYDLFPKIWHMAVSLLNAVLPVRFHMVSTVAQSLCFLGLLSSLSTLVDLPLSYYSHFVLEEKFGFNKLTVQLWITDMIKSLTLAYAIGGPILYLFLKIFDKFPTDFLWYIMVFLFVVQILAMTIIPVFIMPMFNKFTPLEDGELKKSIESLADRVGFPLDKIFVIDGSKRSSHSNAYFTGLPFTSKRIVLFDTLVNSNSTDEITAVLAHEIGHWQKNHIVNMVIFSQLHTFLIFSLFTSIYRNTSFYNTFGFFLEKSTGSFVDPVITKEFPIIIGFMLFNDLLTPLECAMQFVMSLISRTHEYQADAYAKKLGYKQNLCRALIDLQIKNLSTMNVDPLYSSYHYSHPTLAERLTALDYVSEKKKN

[1] = target: Mitogen-activated protein kinase 10 (Homo sapiens, UniProt P53779); assay: Dose response biochemical screening assay for inhibitors of c-Jun N-Terminal Kinase 3 (JNK3). [Related pubchem assays: 746 ]
Mitogen-activated protein kinase 10, sequence (P53779 whole entry): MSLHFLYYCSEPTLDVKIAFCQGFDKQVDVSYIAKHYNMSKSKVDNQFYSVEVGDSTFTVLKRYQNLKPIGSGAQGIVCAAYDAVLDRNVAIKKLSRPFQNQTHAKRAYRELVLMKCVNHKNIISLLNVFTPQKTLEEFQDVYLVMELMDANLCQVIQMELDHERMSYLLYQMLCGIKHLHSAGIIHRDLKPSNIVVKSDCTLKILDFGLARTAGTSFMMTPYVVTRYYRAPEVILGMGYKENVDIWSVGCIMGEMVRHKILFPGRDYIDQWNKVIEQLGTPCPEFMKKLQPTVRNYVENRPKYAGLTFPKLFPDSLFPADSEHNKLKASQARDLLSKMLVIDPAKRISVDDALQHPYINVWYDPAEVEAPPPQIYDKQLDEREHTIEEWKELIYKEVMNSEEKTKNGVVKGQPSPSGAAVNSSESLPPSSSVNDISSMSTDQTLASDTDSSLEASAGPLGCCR

[2] = insulin promoter down-regulators in MIN6 cells, imaging, high-content screening, mouse beta cells (AID 1628); assay type: functional
[3] = growth suppression of beta-catenin-knockout colon cells, dose response, cell-based, HCT116, human colon tumor (AID 1045); assay type: functional;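 note: HCT116 colon tumor cells with beta catenin knocked out; cells exposed to compound for 60 hours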
[4] = cytotoxicity in MIN6 insulinoma cells, dose response, cytotoxicity control, cell-based, mouse insulinoma (AID 2122); assay type: functional;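 note: confirmatory high-throughput counterscreen run to flag cytotoxic compounds; mouse MIN-6 beta cells carrying an insulin promoter eGFP reporter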
[5] = growth suppression of PTEN-null colon cells, dose response, cell-based, HCT116 PTEN knockout (AID 1047); assay type: functional;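 note: HCT116 colon tumor cells with PTEN knocked out; cells exposed to compound for 60 hours before readout; potency for loss of cell viability measured by luminescence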
[6] = inhibitors of SNCA 5'UTR-driven reporter translation, confirmation, H4 neuroglioma cells, luminescence (AID 1988); assay type: functional, cell-based
[7] = inhibitors of firefly luciferase expression or activity, dose response, H4 neuroglioma cells, luminescence (AID 1990); assay type: functional, cell-based
[8] = Luminescence Cell-Based Dose Response HTS to Identify Inhibitors of 5'UTR Stem-Loop Driven Prion Protein mRNA Translation in H4 Neuroglioblastoma Cells. [Related pubchem assays: 1827 (Project Summary), 1813 (Primary HTS)]; assay type: functional

Row | Structure (SMILES) | AC50 (CAAX prenyl protease 2) | AC50 (CAAX prenyl protease 1) | IC50 [1] | IC50 [2] | EC50 [3] | IC50 [4] | EC50 [5] | EC50 [6] | EC50 [7] | EC50 [8]
1 | COC(=O)c1ccccc1NC(=O)NCc1cccnc1 | 26.1 µM (active) | 3.47 µM (active) | > 93.1 µM (not active) |  |  |  |  |  |  | 
2 | COc1ccc(N2CCN(Cc3nc(N)nc(Nc4ccc(C)c(Cl)c4)n3)CC2)cc1 |  |  |  | 3.03 µM (active) | 24 µM (active) | 4.31 µM (active) | 28.9 µM (active) | 13.7 µM (active) | 9.58 µM (active) | 26.8 µM (active)
